Test results reported in ChEMBL document CHEMBL4507311, “Data for DCP probe A-1155463” (2021).

Columns and labels:
[1] = target: Tyrosine-protein kinase ABL1 (Homo sapiens) (UniProt P00519); conditions: Compound concentration 1000.0 nM
[2] = test system: ALK tyrosine kinase receptor (Homo sapiens), Q9UM73 [L1196M]; conditions: Compound concentration 1000.0 nM
[3] = target: 5'-AMP-activated protein kinase catalytic subunit alpha-1 (Homo sapiens) (UniProt Q13131); conditions: Compound concentration 1000.0 nM
[4] = target: NUAK family SNF1-like kinase 1 (Homo sapiens) (UniProt O60285); conditions: Compound concentration 1000.0 nM
[5] = target: Aurora kinase A (Homo sapiens) (UniProt O14965); conditions: Compound concentration 1000.0 nM
[6] = target: Cyclin-dependent kinase-like 2 (Homo sapiens) (UniProt Q92772); conditions: Compound concentration 1000.0 nM
[7] = target: Dual specificity protein kinase CLK2 (Homo sapiens) (UniProt P49760); conditions: Compound concentration 1000.0 nM
[8] = target: Casein kinase I isoform gamma-2 (Homo sapiens) (UniProt P78368); conditions: Compound concentration 1000.0 nM
[9] = target: Myotonin-protein kinase (Homo sapiens) (UniProt Q09013); conditions: Compound concentration 1000.0 nM
[10] = test system: Epidermal growth factor receptor (Homo sapiens), P00533 [G719S]; conditions: Compound concentration 1000.0 nM
[11] = test system: Epidermal growth factor receptor (Homo sapiens), P00533 [UNDEFINED MUTATION]; conditions: Compound concentration 1000.0 nM
[12] = target: Eukaryotic translation initiation factor 2-alpha kinase 1 (Homo sapiens) (UniProt Q9BQI3); conditions: Compound concentration 1000.0 nM
[13] = target: Ephrin type-B receptor 4 (Homo sapiens) (UniProt P54760); conditions: Compound concentration 1000.0 nM
[14] = target: Mitogen-activated protein kinase 4 (Homo sapiens) (UniProt P31152); conditions: Compound concentration 1000.0 nM
[15] = target: Serine/threonine-protein kinase/endoribonuclease IRE1 (Homo sapiens) (UniProt O75460); conditions: Compound concentration 1000.0 nM
[16] = target: Vascular endothelial growth factor receptor 1 (Homo sapiens) (UniProt P17948); conditions: Compound concentration 1000.0 nM
[17] = target: Homeodomain-interacting protein kinase 3 (Homo sapiens) (UniProt Q9H422); conditions: Compound concentration 1000.0 nM
[18] = test system: Leucine-rich repeat serine/threonine-protein kinase 2 (Homo sapiens), Q5S007 [G2019S]; conditions: Compound concentration 1000.0 nM
[19] = target: Mitogen-activated protein kinase kinase kinase 15 (Homo sapiens) (UniProt Q6ZN16); conditions: Compound concentration 1000.0 nM
[20] = target: Mitogen-activated protein kinase kinase kinase kinase 4 (Homo sapiens) (UniProt O95819); conditions: Compound concentration 1000.0 nM
[21] = target: Serine/threonine-protein kinase 3 (Homo sapiens) (UniProt Q13188); conditions: Compound concentration 1000.0 nM
[22] = target: Serine/threonine-protein kinase OSR1 (Homo sapiens) (UniProt O95747); conditions: Compound concentration 1000.0 nM
[23] = target: Cyclin-dependent kinase 17 (Homo sapiens) (UniProt Q00537); conditions: Compound concentration 1000.0 nM
[24] = target: Platelet-derived growth factor receptor alpha (Homo sapiens) (UniProt P16234); conditions: Compound concentration 1000.0 nM
[25] = target: Platelet-derived growth factor receptor beta (Homo sapiens) (UniProt P09619); conditions: Compound concentration 1000.0 nM
[26] = test system: Phosphatidylinositol 4,5-bisphosphate 3-kinase catalytic subunit alpha isoform (Homo sapiens), P42336 [H1047L]; conditions: Compound concentration 1000.0 nM
[27] = test system: Phosphatidylinositol 4,5-bisphosphate 3-kinase catalytic subunit alpha isoform (Homo sapiens), P42336 [M1043I]; conditions: Compound concentration 1000.0 nM
[28] = test system: Phosphatidylinositol 4,5-bisphosphate 3-kinase catalytic subunit alpha isoform (Homo sapiens), P42336 [Q546K]; conditions: Compound concentration 1000.0 nM
[29] = target: Serine/threonine-protein kinase pim-2 (Homo sapiens) (UniProt Q9P1W9); conditions: Compound concentration 1000.0 nM
[30] = target: Serine/threonine-protein kinase N2 (Homo sapiens) (UniProt Q16513); conditions: Compound concentration 1000.0 nM
[31] = target: Protein kinase C eta type (Homo sapiens) (UniProt P24723); conditions: Compound concentration 1000.0 nM
[32] = target: Protein-tyrosine kinase 2-beta (Homo sapiens) (UniProt Q14289); conditions: Compound concentration 1000.0 nM
[33] = target: Ribosomal protein S6 kinase beta-1 (Homo sapiens) (UniProt P23443); conditions: Compound concentration 1000.0 nM
[34] = target: SNF-related serine/threonine-protein kinase (Homo sapiens) (UniProt Q9NRH2); conditions: Compound concentration 1000.0 nM
[35] = target: Serine/threonine-protein kinase ULK1 (Homo sapiens) (UniProt O75385); conditions: Compound concentration 1000.0 nM
[36] = target: Serine/threonine-protein kinase 32C (Homo sapiens) (UniProt Q86UX6); conditions: Compound concentration 1000.0 nM
[37] = target: Tyrosine-protein kinase ZAP-70 (Homo sapiens) (UniProt P43403); conditions: Compound concentration 1000.0 nM
[38] = target: 5-hydroxytryptamine receptor 1B (Homo sapiens) (UniProt P28222); conditions: Compound concentration 10.0 uM
[39] = target: 5-hydroxytryptamine receptor 5A (Homo sapiens) (UniProt P47898); conditions: Compound concentration 10.0 uM
[40] = target: D(3) dopamine receptor (Homo sapiens) (UniProt P35462); conditions: Compound concentration 10.0 uM
[41] = target: Sodium-dependent noradrenaline transporter (Homo sapiens) (UniProt P23975); conditions: Compound concentration 10.0 uM
[42] = target: GABA-A receptor; anion channel (Rattus norvegicus) (UniProt O09028+P15431+P18506+P18508+P19969+P20236+P23574+P23576+P28471+P28473+P30191+P62813+P63079+P63138+Q91ZM7+Q9ES14); conditions: Compound concentration 10.0 uM
[43] = target: Beta-2 adrenergic receptor (Homo sapiens) (UniProt P07550); conditions: Compound concentration 10.0 uM
Rattus norvegicus = species on record: Rattus norvegicus; conditions: Compound concentration 10.0 uM

Sequence of Phosphatidylinositol 4,5-bisphosphate 3-kinase catalytic subunit alpha isoform (Homo sapiens), P42336 [M1043I] (P42336 whole entry M1043I, canonical isoform): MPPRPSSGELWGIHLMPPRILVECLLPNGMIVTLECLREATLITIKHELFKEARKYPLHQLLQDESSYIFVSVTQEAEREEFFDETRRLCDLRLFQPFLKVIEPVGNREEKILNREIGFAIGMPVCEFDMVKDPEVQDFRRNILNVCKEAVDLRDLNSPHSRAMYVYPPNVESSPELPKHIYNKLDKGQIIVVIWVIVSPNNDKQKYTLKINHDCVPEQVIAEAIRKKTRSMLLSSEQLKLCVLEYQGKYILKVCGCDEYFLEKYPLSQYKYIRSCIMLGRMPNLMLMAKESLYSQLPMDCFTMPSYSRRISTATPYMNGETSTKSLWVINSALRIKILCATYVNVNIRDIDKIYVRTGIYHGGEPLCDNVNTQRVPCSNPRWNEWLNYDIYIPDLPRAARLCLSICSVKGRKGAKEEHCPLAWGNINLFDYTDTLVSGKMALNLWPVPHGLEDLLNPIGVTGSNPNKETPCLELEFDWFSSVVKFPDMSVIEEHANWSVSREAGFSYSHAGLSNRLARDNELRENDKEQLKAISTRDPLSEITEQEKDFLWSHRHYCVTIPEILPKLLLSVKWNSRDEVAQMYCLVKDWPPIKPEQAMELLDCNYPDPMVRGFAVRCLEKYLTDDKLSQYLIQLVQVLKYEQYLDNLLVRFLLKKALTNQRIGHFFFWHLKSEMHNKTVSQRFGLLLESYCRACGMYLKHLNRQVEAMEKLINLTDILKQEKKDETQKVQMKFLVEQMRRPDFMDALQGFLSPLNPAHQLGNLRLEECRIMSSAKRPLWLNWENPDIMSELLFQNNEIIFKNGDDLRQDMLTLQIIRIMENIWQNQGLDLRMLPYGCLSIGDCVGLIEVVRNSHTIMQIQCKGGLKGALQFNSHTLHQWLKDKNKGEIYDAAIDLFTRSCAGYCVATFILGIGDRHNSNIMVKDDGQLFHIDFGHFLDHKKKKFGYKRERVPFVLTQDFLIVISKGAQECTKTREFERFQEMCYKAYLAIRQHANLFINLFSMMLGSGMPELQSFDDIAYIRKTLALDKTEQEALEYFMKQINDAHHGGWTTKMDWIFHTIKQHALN
Sequence of Protein-tyrosine kinase 2-beta (Homo sapiens) (Q14289 whole entry, looked up): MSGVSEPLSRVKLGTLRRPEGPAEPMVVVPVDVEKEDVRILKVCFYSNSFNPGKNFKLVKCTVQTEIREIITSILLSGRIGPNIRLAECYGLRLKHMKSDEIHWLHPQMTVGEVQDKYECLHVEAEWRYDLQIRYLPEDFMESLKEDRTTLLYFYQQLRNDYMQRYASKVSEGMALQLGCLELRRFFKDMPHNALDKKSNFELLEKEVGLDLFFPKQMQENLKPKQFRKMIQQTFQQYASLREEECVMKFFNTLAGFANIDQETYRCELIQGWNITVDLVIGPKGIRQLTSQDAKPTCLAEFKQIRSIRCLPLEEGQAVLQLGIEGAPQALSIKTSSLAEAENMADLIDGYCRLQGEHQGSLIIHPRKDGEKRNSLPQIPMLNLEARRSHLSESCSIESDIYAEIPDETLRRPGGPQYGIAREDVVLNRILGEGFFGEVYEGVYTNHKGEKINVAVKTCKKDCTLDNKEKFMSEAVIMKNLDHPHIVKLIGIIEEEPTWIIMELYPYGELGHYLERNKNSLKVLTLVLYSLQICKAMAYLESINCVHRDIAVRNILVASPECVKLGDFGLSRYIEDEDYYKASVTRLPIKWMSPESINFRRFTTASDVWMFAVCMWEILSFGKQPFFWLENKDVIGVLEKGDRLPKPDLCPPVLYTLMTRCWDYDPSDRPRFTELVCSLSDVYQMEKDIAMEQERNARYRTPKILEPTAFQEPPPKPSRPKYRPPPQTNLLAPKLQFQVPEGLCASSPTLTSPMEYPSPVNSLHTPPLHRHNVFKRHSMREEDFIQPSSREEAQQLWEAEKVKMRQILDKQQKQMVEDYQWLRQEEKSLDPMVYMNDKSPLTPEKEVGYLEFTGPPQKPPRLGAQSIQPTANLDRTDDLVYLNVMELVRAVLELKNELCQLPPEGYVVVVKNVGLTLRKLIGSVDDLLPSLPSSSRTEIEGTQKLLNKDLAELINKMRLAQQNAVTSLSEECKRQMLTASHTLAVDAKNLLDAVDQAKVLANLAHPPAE
Sequence of Aurora kinase A (Homo sapiens) (O14965 whole entry): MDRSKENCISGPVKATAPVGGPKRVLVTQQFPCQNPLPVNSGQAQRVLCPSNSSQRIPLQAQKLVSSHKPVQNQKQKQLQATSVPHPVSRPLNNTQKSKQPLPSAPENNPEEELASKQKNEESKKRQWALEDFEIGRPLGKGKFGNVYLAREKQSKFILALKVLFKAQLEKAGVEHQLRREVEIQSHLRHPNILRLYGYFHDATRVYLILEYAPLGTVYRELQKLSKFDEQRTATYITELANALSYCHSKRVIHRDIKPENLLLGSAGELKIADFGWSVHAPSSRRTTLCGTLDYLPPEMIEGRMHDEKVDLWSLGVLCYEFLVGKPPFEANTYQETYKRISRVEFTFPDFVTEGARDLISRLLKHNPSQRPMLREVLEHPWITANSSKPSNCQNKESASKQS
Sequence of 5'-AMP-activated protein kinase catalytic subunit alpha-1 (Homo sapiens) (Q13131 whole entry, looked up): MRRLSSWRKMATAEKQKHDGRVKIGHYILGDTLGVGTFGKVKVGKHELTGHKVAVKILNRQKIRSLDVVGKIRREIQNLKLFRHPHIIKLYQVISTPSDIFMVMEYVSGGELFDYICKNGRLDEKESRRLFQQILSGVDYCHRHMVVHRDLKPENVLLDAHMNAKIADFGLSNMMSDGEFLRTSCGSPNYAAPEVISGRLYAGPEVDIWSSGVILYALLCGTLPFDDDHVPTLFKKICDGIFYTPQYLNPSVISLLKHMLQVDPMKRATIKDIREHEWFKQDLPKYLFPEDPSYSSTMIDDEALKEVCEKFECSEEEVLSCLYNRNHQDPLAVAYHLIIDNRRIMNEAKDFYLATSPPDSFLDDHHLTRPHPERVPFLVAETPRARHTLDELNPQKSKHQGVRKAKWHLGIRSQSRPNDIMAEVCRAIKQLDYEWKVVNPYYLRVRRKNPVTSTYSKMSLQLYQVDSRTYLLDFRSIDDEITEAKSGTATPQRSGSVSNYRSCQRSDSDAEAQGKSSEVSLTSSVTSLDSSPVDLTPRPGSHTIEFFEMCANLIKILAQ
Sequence of Protein kinase C eta type (Homo sapiens) (P24723 whole entry): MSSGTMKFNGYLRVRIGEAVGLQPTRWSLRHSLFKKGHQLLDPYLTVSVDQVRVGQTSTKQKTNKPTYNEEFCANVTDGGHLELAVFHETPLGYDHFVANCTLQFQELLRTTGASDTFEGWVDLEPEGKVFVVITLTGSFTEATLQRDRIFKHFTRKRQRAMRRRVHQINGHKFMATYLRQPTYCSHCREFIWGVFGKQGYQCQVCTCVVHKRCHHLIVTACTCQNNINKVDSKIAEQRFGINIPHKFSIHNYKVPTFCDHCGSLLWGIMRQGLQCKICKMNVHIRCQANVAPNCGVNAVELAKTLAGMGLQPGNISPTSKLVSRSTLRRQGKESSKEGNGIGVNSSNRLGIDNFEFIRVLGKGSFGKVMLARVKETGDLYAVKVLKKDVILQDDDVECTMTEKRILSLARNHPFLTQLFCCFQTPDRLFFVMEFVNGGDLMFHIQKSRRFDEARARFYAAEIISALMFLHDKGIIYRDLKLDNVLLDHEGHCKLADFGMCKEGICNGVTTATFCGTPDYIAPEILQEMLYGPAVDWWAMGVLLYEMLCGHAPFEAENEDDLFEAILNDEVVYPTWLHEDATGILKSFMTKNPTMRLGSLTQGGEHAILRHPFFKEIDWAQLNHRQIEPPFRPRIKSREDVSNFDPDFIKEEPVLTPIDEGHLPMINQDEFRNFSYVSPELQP
Sequence of Mitogen-activated protein kinase 4 (Homo sapiens) (P31152 whole entry): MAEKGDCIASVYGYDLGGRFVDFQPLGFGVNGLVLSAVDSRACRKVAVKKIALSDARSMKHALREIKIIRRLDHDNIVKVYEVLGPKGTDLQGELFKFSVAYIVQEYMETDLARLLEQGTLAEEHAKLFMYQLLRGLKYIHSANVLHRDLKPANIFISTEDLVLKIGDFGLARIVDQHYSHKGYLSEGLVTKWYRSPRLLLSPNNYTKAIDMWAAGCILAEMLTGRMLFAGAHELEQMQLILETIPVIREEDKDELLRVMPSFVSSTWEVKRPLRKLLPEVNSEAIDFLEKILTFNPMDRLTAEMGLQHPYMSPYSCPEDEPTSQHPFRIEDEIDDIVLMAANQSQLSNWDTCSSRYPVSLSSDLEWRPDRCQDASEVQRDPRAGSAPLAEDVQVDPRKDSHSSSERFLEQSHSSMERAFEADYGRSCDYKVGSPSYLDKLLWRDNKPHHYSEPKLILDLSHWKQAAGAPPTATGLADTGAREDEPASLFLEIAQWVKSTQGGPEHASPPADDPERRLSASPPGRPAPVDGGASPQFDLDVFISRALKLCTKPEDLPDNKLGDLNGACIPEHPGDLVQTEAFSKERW
Sequence of Myotonin-protein kinase (Homo sapiens) (Q09013 whole entry): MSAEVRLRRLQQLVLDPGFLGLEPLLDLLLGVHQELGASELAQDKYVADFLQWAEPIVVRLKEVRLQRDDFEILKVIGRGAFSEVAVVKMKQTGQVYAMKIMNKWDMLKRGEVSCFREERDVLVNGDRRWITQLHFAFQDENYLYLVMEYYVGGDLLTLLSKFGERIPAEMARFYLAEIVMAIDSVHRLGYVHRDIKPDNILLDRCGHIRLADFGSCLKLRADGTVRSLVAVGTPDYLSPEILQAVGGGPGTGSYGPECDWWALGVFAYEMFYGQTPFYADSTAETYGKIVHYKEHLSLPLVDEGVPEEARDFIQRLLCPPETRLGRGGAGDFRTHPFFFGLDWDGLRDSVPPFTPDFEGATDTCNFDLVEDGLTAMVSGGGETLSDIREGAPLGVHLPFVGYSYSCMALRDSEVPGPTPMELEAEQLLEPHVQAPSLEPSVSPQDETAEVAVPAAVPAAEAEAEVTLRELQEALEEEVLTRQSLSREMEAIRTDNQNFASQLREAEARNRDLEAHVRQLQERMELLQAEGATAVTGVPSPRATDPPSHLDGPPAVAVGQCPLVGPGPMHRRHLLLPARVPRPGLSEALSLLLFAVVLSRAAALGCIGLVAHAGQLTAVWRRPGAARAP

CN(C)CC#Cc1ccc(OCCCc2sc(N3CCc4cccc(C(=O)Nc5nc6ccccc6s5)c4C3)nc2C(=O)O)c(F)c1 [A-1155463]
residual activity [1]: 100% | residual activity [2]: 100% | residual activity [3]: 100% | residual activity [4]: 80% | residual activity [5]: 92% | residual activity [6]: 98% | residual activity [7]: 83% | residual activity [8]: 92% | residual activity [9]: 100% | residual activity [10]: 100% | residual activity [11]: 94% | residual activity [12]: 98% | residual activity [13]: 100% | residual activity [14]: 89% | residual activity [15]: 84% | residual activity [16]: 92% | residual activity [17]: 87% | residual activity [18]: 100% | residual activity [19]: 99% | residual activity [20]: 96% | residual activity [21]: 88% | residual activity [22]: 86% | residual activity [23]: 99% | residual activity [24]: 100% | residual activity [25]: 94% | residual activity [26]: 68% | residual activity [27]: 96% | residual activity [28]: 79% | residual activity [29]: 100% | residual activity [30]: 100% | residual activity [31]: 74% | residual activity [32]: 100% | residual activity [33]: 100% | residual activity [34]: 100% | residual activity [35]: 100% | residual activity [36]: 75% | residual activity [37]: 100% | inhibition [38]: 20.2% | inhibition [39]: -3.1% | inhibition [40]: 2.01% | inhibition [41]: 42.9% | inhibition [42]: 11.3% | inhibition [43]: 27.1% | inhibition (Rattus norvegicus): 61.1%
